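Method: 48-hour compound exposure of cells in 96-well plates, five concentrations, linear interpolation of endpoints. GI50 marks 50% less growth.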 The source made the active and inactive calls. No stated cut-off is given here; in the data, active = GI50 up to about 1.1 µM and inactive = higher.
Assays:
Test in all cases: inhibition of tumour cell growth, NCI panel, 48 h
A498 = test system: A498
786-0 = test system: 786-0
DU-145 = test system: DU-145
U-251 = test system: U-251
NCI-H226 = test system: NCI-H226
Malme-3M = test system: Malme-3M
SF-268 = test system: SF-268
HT-29 = test system: HT-29
BT-549 = test system: BT-549
OVCAR-3 = test system: OVCAR-3
OVCAR-5 = test system: OVCAR-5
KM12 = test system: KM12
TK-10 = test system: TK-10
SNB-75 = test system: SNB-75
HOP-92 = test system: HOP-92
HCT-15 = test system: HCT-15
CCRF-CEM = test system: CCRF-CEM
SNB-19 = test system: SNB-19
MCF7 = test system: MCF7
SK-OV-3 = test system: SK-OV-3

## O=C(c1ccc([N+](=O)[O-])cc1)N1CCCC1
A498
  GI50: > 100 µM (inactive)
786-0
  GI50: > 100 µM (inactive)
DU-145
  GI50: > 100 µM (inactive)
U-251
  GI50: > 100 µM (inactive)
NCI-H226
  GI50: > 100 µM (inactive)
Malme-3M
  GI50: > 100 µM (inactive)
SF-268
  GI50: > 100 µM (inactive)
HT-29
  GI50: > 100 µM (inactive)
BT-549
  GI50: > 100 µM (inactive)
OVCAR-3
  GI50: > 100 µM (inactive)
OVCAR-5
  GI50: > 100 µM (inactive)
KM12
  GI50: > 100 µM (inactive)
TK-10
  GI50: 86.1 µM (inactive)
SNB-75
  GI50: > 100 µM (inactive)
HOP-92
  GI50: > 100 µM (inactive)
HCT-15
  GI50: > 100 µM
CCRF-CEM
  GI50: > 100 µM (inactive)
SNB-19
  GI50: > 100 µM (inactive)
MCF7
  GI50: > 100 µM (inactive)

## CCSC1=C(C#N)C2(CCCCC2)C2=C(O)CC(C)(C)CC2=N1
A498
  GI50: 24.4 µM (inactive)
786-0
  GI50: 31.8 µM (inactive)
DU-145
  GI50: 25.5 µM (inactive)
U-251
  GI50: 29.9 µM (inactive)
NCI-H226
  GI50: 53.6 µM (inactive)
Malme-3M
  GI50: 17.3 µM (inactive)
SF-268
  GI50: 45 µM (inactive)
HT-29
  GI50: > 100 µM (inactive)
BT-549
  GI50: 14.2 µM (inactive)
OVCAR-5
  GI50: > 100 µM (inactive)
KM12
  GI50: > 100 µM (inactive)
TK-10
  GI50: 11.1 µM (inactive)
SNB-75
  GI50: 21.9 µM (inactive)
HOP-92
  GI50: 11.4 µM (inactive)
HCT-15
  GI50: 64.7 µM
CCRF-CEM
  GI50: > 100 µM (inactive)
SNB-19
  GI50: 25.2 µM (inactive)
MCF7
  GI50: 48.3 µM (inactive)

## COC(=O)Cc1c([C@H]2[C@H](CC(=O)OC)c3ccccc3N2S(=O)(=O)c2ccc(C)cc2)[nH]c2ccccc12
A498
  GI50: > 100 µM (inactive)
786-0
  GI50: > 100 µM (inactive)
DU-145
  GI50: > 100 µM (inactive)
U-251
  GI50: > 100 µM (inactive)
NCI-H226
  GI50: > 100 µM (inactive)
Malme-3M
  GI50: 0.208 µM (active)
SF-268
  GI50: > 100 µM (inactive)
HT-29
  GI50: > 100 µM (inactive)
BT-549
  GI50: > 100 µM (inactive)
OVCAR-3
  GI50: > 100 µM (inactive)
OVCAR-5
  GI50: > 100 µM (inactive)
KM12
  GI50: > 56.9 µM (inactive)
SK-OV-3
  GI50: > 100 µM (inactive)
TK-10
  GI50: > 100 µM (inactive)
HOP-92
  GI50: > 100 µM (inactive)
HCT-15
  GI50: > 100 µM
CCRF-CEM
  GI50: 18.5 µM (inactive)
SNB-19
  GI50: > 100 µM (inactive)
MCF7
  GI50: > 100 µM (inactive)

## Cc1nc2ccc(Cl)cc2c2c1CCO2
A498
  GI50: 71 µM (inactive)
786-0
  GI50: > 100 µM (inactive)
DU-145
  GI50: 86.5 µM (inactive)
U-251
  GI50: > 100 µM (inactive)
NCI-H226
  GI50: 94.4 µM (inactive)
Malme-3M
  GI50: > 100 µM (inactive)
SF-268
  GI50: 68.9 µM (inactive)
HT-29
  GI50: 95.1 µM (inactive)
BT-549
  GI50: 92.9 µM (inactive)
OVCAR-3
  GI50: 91.6 µM (inactive)
KM12
  GI50: > 100 µM (inactive)
TK-10
  GI50: 64.7 µM (inactive)
SNB-75
  GI50: 69.3 µM (inactive)
HOP-92
  GI50: 80 µM (inactive)
HCT-15
  GI50: 90.2 µM
CCRF-CEM
  GI50: 57.8 µM (inactive)
SNB-19
  GI50: 60.4 µM (inactive)
MCF7
  GI50: > 100 µM (inactive)

## OC1[C@H](O)CN(OCc2ccccc2)C[C@@H]1O (stereo not given in full)
A498
  GI50: > 100 µM (inactive)
786-0
  GI50: > 100 µM (inactive)
DU-145
  GI50: > 100 µM (inactive)
U-251
  GI50: > 100 µM (inactive)
NCI-H226
  GI50: > 100 µM (inactive)
Malme-3M
  GI50: > 100 µM (inactive)
SF-268
  GI50: > 100 µM (inactive)
HT-29
  GI50: > 100 µM (inactive)
BT-549
  GI50: > 100 µM (inactive)
OVCAR-3
  GI50: > 100 µM (inactive)
OVCAR-5
  GI50: > 100 µM (inactive)
KM12
  GI50: > 100 µM (inactive)
TK-10
  GI50: > 100 µM (inactive)
SNB-75
  GI50: > 100 µM (inactive)
HOP-92
  GI50: > 100 µM (inactive)
HCT-15
  GI50: > 100 µM
CCRF-CEM
  GI50: > 100 µM (inactive)
SNB-19
  GI50: > 100 µM (inactive)
MCF7
  GI50: > 100 µM (inactive)

## CC1CCCOc2ccc(cc2)/C=N\c2ccc(cc2)CCc2ccc(cc2)/N=C\c2ccc(cc2)OCCC1
A498
  GI50: > 100 µM (inactive)
786-0
  GI50: > 100 µM (inactive)
DU-145
  GI50: > 100 µM (inactive)
U-251
  GI50: > 100 µM (inactive)
NCI-H226
  GI50: > 100 µM (inactive)
Malme-3M
  GI50: > 100 µM (inactive)
SF-268
  GI50: > 100 µM (inactive)
HT-29
  GI50: > 100 µM (inactive)
BT-549
  GI50: > 100 µM (inactive)
OVCAR-3
  GI50: > 100 µM (inactive)
OVCAR-5
  GI50: > 100 µM (inactive)
KM12
  GI50: > 100 µM (inactive)
TK-10
  GI50: > 100 µM (inactive)
SNB-75
  GI50: > 100 µM (inactive)
HOP-92
  GI50: > 100 µM (inactive)
HCT-15
  GI50: > 100 µM
CCRF-CEM
  GI50: > 100 µM (inactive)
SNB-19
  GI50: > 100 µM (inactive)
MCF7
  GI50: > 100 µM (inactive)

## O=c1c2cc(Br)ccc2oc2ccc(Br)cc12
A498
  GI50: > 100 µM (inactive)
786-0
  GI50: 64.7 µM (inactive)
DU-145
  GI50: 84.1 µM (inactive)
U-251
  GI50: 64.6 µM (inactive)
NCI-H226
  GI50: > 100 µM (inactive)
Malme-3M
  GI50: > 100 µM (inactive)
SF-268
  GI50: > 100 µM (inactive)
HT-29
  GI50: > 100 µM (inactive)
BT-549
  GI50: > 100 µM (inactive)
OVCAR-3
  GI50: 71.8 µM (inactive)
OVCAR-5
  GI50: > 100 µM (inactive)
KM12
  GI50: > 100 µM (inactive)
TK-10
  GI50: > 100 µM (inactive)
SNB-75
  GI50: 24.7 µM (inactive)
HOP-92
  GI50: > 100 µM (inactive)
HCT-15
  GI50: > 100 µM
CCRF-CEM
  GI50: > 100 µM (inactive)
SNB-19
  GI50: > 100 µM (inactive)
MCF7
  GI50: 27.5 µM (inactive)

## CC(=O)Nc1cc2cc(NS(=O)(=O)c3cc(C(F)(F)F)cc(C(F)(F)F)c3)ccc2oc1=O
A498
  GI50: > 100 µM (inactive)
786-0
  GI50: 72.3 µM (inactive)
DU-145
  GI50: > 100 µM (inactive)
U-251
  GI50: 28.7 µM (inactive)
NCI-H226
  GI50: > 100 µM (inactive)
Malme-3M
  GI50: > 100 µM (inactive)
SF-268
  GI50: 32.6 µM (inactive)
HT-29
  GI50: > 100 µM (inactive)
BT-549
  GI50: > 100 µM (inactive)
OVCAR-3
  GI50: 52.1 µM (inactive)
OVCAR-5
  GI50: > 100 µM (inactive)
KM12
  GI50: > 100 µM (inactive)
TK-10
  GI50: > 100 µM (inactive)
HOP-92
  GI50: > 100 µM (inactive)
HCT-15
  GI50: > 100 µM
CCRF-CEM
  GI50: > 100 µM (inactive)
SNB-19
  GI50: 47.2 µM (inactive)
MCF7
  GI50: > 100 µM (inactive)

## NS(=O)(=O)c1ccc(NS(=O)(=O)c2ccc(NC(=O)N(c3ccccc3)c3ccccc3)cc2)cc1
A498
  GI50: > 100 µM (inactive)
786-0
  GI50: 68.9 µM (inactive)
DU-145
  GI50: 43.3 µM (inactive)
U-251
  GI50: > 100 µM (inactive)
NCI-H226
  GI50: > 100 µM (inactive)
Malme-3M
  GI50: 27.3 µM (inactive)
SF-268
  GI50: 64.1 µM (inactive)
HT-29
  GI50: 57.1 µM (inactive)
BT-549
  GI50: 87.1 µM (inactive)
OVCAR-3
  GI50: 19.1 µM (inactive)
OVCAR-5
  GI50: > 100 µM (inactive)
KM12
  GI50: 60.5 µM (inactive)
TK-10
  GI50: 50.4 µM (inactive)
HOP-92
  GI50: 51.3 µM (inactive)
HCT-15
  GI50: > 100 µM
CCRF-CEM
  GI50: 2.7 µM (inactive)
SNB-19
  GI50: > 100 µM (inactive)
MCF7
  GI50: 52.7 µM (inactive)

## Brc1ccc(/N=N/N2CCCC2)cc1
A498
  GI50: 41.6 µM (inactive)
786-0
  GI50: > 100 µM (inactive)
DU-145
  GI50: 49.7 µM (inactive)
U-251
  GI50: 89.1 µM (inactive)
NCI-H226
  GI50: > 100 µM (inactive)
Malme-3M
  GI50: > 100 µM (inactive)
SF-268
  GI50: 95.1 µM (inactive)
HT-29
  GI50: > 100 µM (inactive)
BT-549
  GI50: 44.6 µM (inactive)
OVCAR-3
  GI50: 81.5 µM (inactive)
OVCAR-5
  GI50: > 100 µM (inactive)
KM12
  GI50: 70.3 µM (inactive)
SK-OV-3
  GI50: > 100 µM (inactive)
TK-10
  GI50: 82.4 µM (inactive)
HOP-92
  GI50: 27.2 µM (inactive)
HCT-15
  GI50: 50.7 µM
CCRF-CEM
  GI50: 42 µM (inactive)
SNB-19
  GI50: > 100 µM (inactive)
MCF7
  GI50: 65.8 µM (inactive)

## COc1c2occc2cc2ccc(=O)oc12 [METHOXSALEN]
A498
  GI50: > 100 µM (inactive)
786-0
  GI50: > 100 µM (inactive)
DU-145
  GI50: > 100 µM (inactive)
U-251
  GI50: > 100 µM (inactive)
BT-549
  GI50: > 100 µM (inactive)
OVCAR-3
  GI50: > 100 µM (inactive)
OVCAR-5
  GI50: > 100 µM (inactive)
SK-OV-3
  GI50: > 100 µM (inactive)
TK-10
  GI50: > 100 µM (inactive)
HOP-92
  GI50: > 100 µM (inactive)
HCT-15
  GI50: > 100 µM
CCRF-CEM
  GI50: > 100 µM (inactive)
SNB-19
  GI50: > 100 µM (inactive)
MCF7
  GI50: > 100 µM (inactive)

Reference: ChEMBL document CHEMBL1201862, “PubChem BioAssay data set” (2004)
